{
  "source": "paper PMC8111447",
  "about": "(Frontiers in Pharmacology, 2021)",
  "key": {"[1]": {"design": "method as in earlier work", "conditions": "main metabolites of osimertinib, ref Cheng et al., 2016, Dickinson et al., Vishwanathan et al., 2019; cited from earlier work"}, "EGFR T790M": {"tested_on": "EGFR T790M", "design": "method as in Cross et al., 2014", "conditions": "ref Cross et al., 2014; cited from earlier work"}, "[2]": {"tested_on": "A431 (wild-type EGFR) tumor xenografts", "assay": "A431 xenograft model", "format": "in vivo, Nu/Nu nude mice", "conditions": "30 mg/kg", "protocol": "The female Nu/Nu nude mice were purchased from Beijing Vital River Laboratories. […] Nu/Nu nude mice were purchased from the Beijing Vital River Laboratories of China. The 6–8 weeks old female mice were inoculated subcutaneously at the right flank with approximately 3–5 × 10^6 tumor cells in 0.2 ml of medium. The treatments were started when the tumor size reached approximately 200 mm^3. […] All mice were orally administrated once daily for consecutive 14 days. Mouse body weight, tumor weight and tumor volume (TV) were measured twice per week. TV was then used for the calculation of tumor inhibitory rate and tumor regression rate."}, "A431 (EGFR^WT)": {"tested_on": "A431 (EGFR^WT)", "assay": "Cell proliferation assay (CTG, 72 h)", "format": "cell-based", "conditions": "Homo sapiens, A-431, A431 cells, mean ± SD, n = 3", "protocol": "(§1) Human lung cancer cell lines (NCI-H1975, H3255 and A431) were obtained from the American Type Culture Collection (ATCC), while PC-9 cell line was supplied by the European Collection of Authenticated Cell Cultures (ECACC). For in vivo implantation, NCI-H1975, H3255 and PC-9 cells were cultured in RPMI1640 (Invitrogen) supplemented with 10% v/v fetal calf serum (Sigma-Aldrich) and 2 mmol/L L-glutamine (Invitrogen). A431 cells were cultured in DMEM (Invitrogen) supplemented with 10% v/v fetal calf serum and 2 mmol/L v/v L-glutamine. All cell lines were then cultured in a humidified incubator with 5% CO2 at 37°C.\n(§2) Test compounds were dissolved in DMSO as a 10 mmol/L stock solution. The initial concentration of compounds were 10 μmol/L and the 3-fold dilution was nine times. […] Plate was shaked for 2 min and the mixture was incubated at room temperature for 10 min.\n(§3) The half-maximal inhibition concentration (IC50) values were processed by GraphPad Prism7 (GraphPad Software; La Jolla, CA)."}, "[3]": {"tested_on": "NCI-H1975 (EGFR^L858R/T790M)", "assay": "Cell proliferation assay (CTG, 72 h)", "format": "cell-based", "conditions": "Homo sapiens, NCI-H1975 cells, mean ± SD, n = 3", "protocol": "as §1, §2, §3"}, "H3255 (EGFR^L858R)": {"tested_on": "H3255 (EGFR^L858R)", "assay": "Cell proliferation assay (CTG, 72 h)", "format": "cell-based, human", "conditions": "Homo sapiens, NCI-H3255; H3255 cells, 72 h; mean ± SD, n = 3", "protocol": "as §1, §2, §3"}, "PC-9 (EGFR^d746–750)": {"tested_on": "PC-9 (EGFR^d746–750)", "assay": "Cell proliferation assay (CTG, 72 h)", "format": "cell-based, human", "conditions": "Homo sapiens; PC-9 cells, 72 h; mean ± SD, n = 3", "protocol": "as §1, §2, §3"}, "NSCLC patients": {"tested_on": "NSCLC patients", "conditions": "cited from earlier work"}, "[4]": {"conditions": "NSCLC patients with EGFR T790M mutation, ref Jänne et al., 2015, Mok et al., 2017"}},
  "note": "Like-named read-outs stand apart in the source and are kept apart here.",
  "data": [
    {"smiles": "C=CC(=O)Nc1cc(Nc2nccc(-c3cn(C)c4ccccc34)n2)c(OC)cc1N(C)CCNC", "note": "[AZ7550]", "values": [
      {"measurement": "metabolite level relative to the parent drug", "setting": "[1]", "result": "about 10%"}
    ]},
    {"smiles": "C=CC(=O)Nc1cc(Nc2nccc(-c3c[nH]c4ccccc34)n2)c(OC)cc1N(C)CCN(C)C", "note": "[AZ5104]", "values": [
      {"measurement": "fold more active on EGFR T790M than osimertinib", "setting": "EGFR T790M", "result": 8, "unit": "fold"},
      {"measurement": "metabolite level relative to the parent drug", "setting": "[1]", "result": "about 10%"}
    ]},
    {"smiles": "CN(C)C/C=C/C(=O)Nc1cc2c(Nc3ccc(F)c(Cl)c3)ncnc2cc1O[C@H]1CCOC1", "note": "[afatinib, reference compound]", "values": [
      {"measurement": "body weight", "setting": "[2]", "result": "severe body loss"}
    ]},
    {"smiles": "C=CC(=O)Nc1cc(Nc2nccc(-c3cn(C)c4ccccc34)n2)c(OC)cc1N(C)CCN(C)C", "note": "[Osimertinib]", "values": [
      {"measurement": "IC50", "setting": "A431 (EGFR^WT)", "result": "[…]"},
      {"measurement": "IC50", "setting": "[3]", "result": "[…]"},
      {"measurement": "IC50", "setting": "H3255 (EGFR^L858R)", "result": "17.8 ± 0.5", "unit": "nM"},
      {"measurement": "IC50", "setting": "PC-9 (EGFR^d746–750)", "result": "14.2 ± 1.63", "unit": "nM"},
      {"measurement": "ORR", "setting": "NSCLC patients; [4]", "result": 70, "unit": "%"},
      {"measurement": "median PFS", "setting": "NSCLC patients; [4]", "result": 9.9, "unit": "months"},
      {"measurement": "efficacy compared to the first-line EGFR TKIs", "setting": "NSCLC patients; advanced NSCLC patients with EGFR mutations, comparator 10.2 months, ref Soria et al., 2018, Ramalingam et al., 2020", "result": 18.9, "unit": "months"},
      {"measurement": "overall survival", "setting": "NSCLC patients; advanced NSCLC patients with EGFR mutations, comparator group 31.8 months, ref Soria et al., 2018, Ramalingam et al., 2020", "result": 38.6, "unit": "months"},
      {"measurement": "ORR", "setting": "NSCLC patients; second-line, locally advanced or metastatic NSCLC progressed on prior EGFR TKI, ref Goss et al., 2016, Mok et al., 2017", "result": 70, "unit": "%"}
    ]}
  ]
}
